Assay results: paper PMC5142287, “Weight control interventions improve therapeutic efficacy of dacarbazine in melanoma by reversing obesity-induced drug resistance” (Cancer & Metabolism, 2016)

Columns and labels:
B16F1 cells = assay: Long-term survival assay, B16F1 cells in serum from experimental mice; format: cell-based, Murine
Description: Additional file 1: Table S1. Composition of diets used in the study. Normal diet (ND) was procured from Amrut Laboratory Animal Feed, Pune, India, and high fat diet (HFD) was purchased from Provimi Animal Nutrition Pvt. Ltd., Bangalore, India. *, HFD was also supplemented with 400 g groundnut and 200 g dried coconut per kg body weight of mice. […] Obesity-associated parameters in the experimental ND mice recorded at the end of the experiment. ND male C57BL/6J mice were divided into two major groups. One group was orally treated with orlistat every alternate day before inoculating with B16F10 cells. The second group was orally given vehicle control on every alternate day for 8 weeks. Mice from both the groups (N = 11 per each group) were injected (s.c.) with B16F10 cells (2 × 10^5 cells/mouse in 100 μl PBS). Their body weight was monitored weekly throughout the study, and serum was collected at the end of the experiment. Blood glucose, serum TG, serum cholesterol, serum-free fatty acids, and serum LDLc were measured. Serum factors including leptin, adiponectin, insulin, resistin, IL-6, and TNF-α were estimated by ELISA. […] Effect of obesity-associated serum factors on the protein level of P-gp, Cav-1, and FASN in B16F1 cells. […] The data were recorded using Zeiss LSM510 META Confocal Microscope. […] Data were acquired on FACS Calibur and analyzed using BD CellQuest Pro software. […]

[1] = LC-MS/MS quantitation of DTIC in tumor, plasma, liver and adipose tissue
Description: The samples were introduced to the mass spectrometer through a reversed-phase column (Agilent ZORBAX SB-C18, 2.1 × 30 mm, 3.5 μm). The mobile phase containing water and acetonitrile with 0.1% formic acid was infused at a flow rate of 0.4 ml min^−1. The MS scan range was set between 100 and 1000 m/z, with the dry gas flow and dry gas temperature maintained at 6 L min^−1 and 320 °C, respectively. […] All the mass spectrometric data were acquired in positive ionization mode using Agilent MassHunter data acquisition software, version B.05.01. MassHunter Quantitative analysis software, version B.07.00 was used for the generation of calibration curves and subsequent quantitation of DTIC in the samples. Calibration curves were created using linear fitting, 1/x weighting and including the origin. Calibration standards (0.5–800 ng) were prepared using standard DTIC. All the samples including the standard DTIC preparations were spiked with leucine enkephalin (10 ng) as internal standard. […] The quantitation capability of this method is evaluated by using samples with known concentrations.

[2] = Obesity-associated factors in B16F10-isografted ND C57BL/6J mice; format: in vivo; settings: end of experiment
Description: Blood glucose levels and serum lipids were estimated as described previously. Insulin, leptin, and adiponectin levels in the serum were estimated by mouse-specific respective ELISA kits as described. Resistin, IL-6, and TNF-α levels in the serum were detected by indirect ELISA as described previously.

B16F10 cells = assay: Long-term survival assay, B16F10 cells in serum from experimental mice; format: cell-based, Murine
Description: After 24 h, DMEM containing 5% serum collected from experimental C57BL/6J mice (as illustrated in Fig. 1) was added and cells were cultured chronically for 10 days.

[3] = test system: FASN, P-gp, Cav-1, pAkt, PCNA, and cyclin D1; assay: Western blot of tumor lysates of B16F10-isografted mice; format: in vivo, C57BL/6J mice
Description: Melanoma tumor samples or cells were washed three to five times with ice-cold PBS and lysed in ice-cold RIPA lysis buffer as described previously. Briefly, the samples were centrifuged at 12000 RPM for 40 min and clear supernatants were stored at −80 °C. Protein concentrations were determined by Coomassie Plus Protein Assay Reagent (Thermo Scientific, IL, USA). Equal amounts of protein samples (50–100 μg) were resolved on 8–10% SDS-polyacrylamide gel and then transferred onto PVDF membrane (Millipore, MA, USA). […] After washing, the membranes were incubated with HRP-conjugated secondary antibodies (1:2000) and blots were developed using luminescence detection reagents (Santa Cruz Biotechnology, CA, USA).

[4] = serum from orlistat-treated or diet-shifted obese mice, DTIC at 1415 μM

## CN(C)/N=N/c1[nH]cnc1C(N)=O [DTIC, Dacarbazine]
B16F1 cells; HFD serum, FASN, Cav-1 and P-gp simultaneously inhibited
  Increase of sensitivity to DTIC: approximately 80%
B16F1 cells; [4]
  Reduction of cell survival: ~75%
[1]; HFD mice compared to ND mice
  DTIC level in the plasma, liver, and adipose tissue: higher
[1]; tumor, mass spectrometry
  Level of DTIC in tumors from HFD mice, fold less than in ND counterparts: ~ 6 fold
[2]; mean
  Blood glucose: 161.17 mg/dL
  Serum IL-6: 20.19 pg/mL
  Serum LDLc: 53.12 mg/dL
  Serum TG: 55.40 mg/dL
  Serum TNF-D: 12.35 pg/mL
  Serum adiponectin: 13873 ng/mL
  Serum cholesterol: 82.82 mg/dL
  Serum free fatty acids: 0.90 mM/L
  Serum insulin: 0.114 µg/L
  Serum leptin: 15.74 ng/mL
  Serum resistin: 0.99 ng/mL
[2]; mean (SD on next line)
  Body weight: 21.1 g
B16F10 cells; HFD serum, FASN, Cav-1 and P-gp simultaneously inhibited (cerulenin, methyl β-cyclodextrin, verapamil)
  Increase of sensitivity to DTIC: approximately 80%
B16F10 cells; [4]
  Reduction of cell survival: approximately 70%
[3]; HFD mice
  Level of P-gp in tumors: further increased
  Protein levels of cyclin D1 and PCNA in tumors: increase
[3]; HFD mice treated with DTIC
  Cav-1 levels in tumors: elevated
  FASN level in tumors: further increased
[3]; ND mice
  Level of P-gp in tumors: reduced
  Protein levels of cyclin D1 and PCNA in tumors: reduced levels
[3]; ND mice treated with DTIC
  FASN and Cav-1 level in tumors: much lower
